How the values were obtained:
Type in all cases: physicochemical
[1] = Molar extinction coefficient of i-line (365 nm), UV-visible absorbance in acetonitrile; details: 0.25 mmol/L in acetonitrile, cell length 1 cm
Protocol: The synthesized photoacid generator was diluted to 0.25 mmol/L with acetonitrile, and using an ultraviolet-visible spectrophotometer (UV-2550 available from SHIMADZU CORPORATION), the absorbance in a range of 200 nm to 500 nm was measured with a cell having an optical path length (a cell length) of 1 cm. The molar extinction coefficient of i-line (365 nm) (ε365) was calculated from the following equation.
[In the equation, […] represents the absorbance at 365 nm.]

[2] = Solvent solubility (butyl acetate, toluene or PGMEA); details: for Solvent solubility PGMEA / Solvent solubility Butyl acetate / Solvent solubility Toluene: 25° C.; for solubility to a solvent (in words): summary of Tables 4 to 6
Protocol: In a test tube, 0.1 g of the synthesized photoacid generator was placed, and an organic solvent (butyl acetate, toluene or PGMEA) was added thereto in 0.2 g portions under a condition where the temperature was adjusted to 25° C. until the photoacid generator was completely dissolved. In this connection, in the case where the photoacid generator was not completely dissolved even when 20 g of the solvent was added, the photoacid generator was evaluated as one that was not dissolved.

[3] = Thermal decomposition temperature (TG/DTA, 2% weight reduction); details: point of 2% weight reduction; 10° C./minute from 30° C. to 500° C.; nitrogen atmosphere
Protocol: The synthesized photoacid generator was measured for the change in weight under a temperature increasing condition of 10° C./minute from 30° C. to 500° C. under a nitrogen atmosphere using a thermal gravimetric/differential thermal analyzer (TG/DTA 6200, available from Seiko Instruments Inc.), and a point where the weight was reduced by 2% was defined as the thermal decomposition temperature.

Row | Compound | Molar extinction coefficient [1] | Solvent solubility PGMEA [2] | Solvent solubility Butyl acetate [2] | solubility to a solvent (in words) [2] | Solvent solubility Toluene [2] | Thermal decomposition temperature [3]
1 | O=C1c2cccc3cccc(c23)C(=O)N1OS(=O)(=O)C(F)(F)F [A′-1, 1,8-naphthalimide trifluoromethanesulfonate, reference compound] | 330 L/mol/cm | 2.4 wt % | 2 wt % | insufficient | 4 wt % | 225 °C
2 | c1ccc(Sc2ccc([S+](c3ccccc3)c3ccccc3)cc2)cc1 [A′-2, reference compound] | 80 L/mol/cm | >30 wt % | <0.5 wt % | – | <0.5 wt % | 340 °C
3 | O=C1c2cccc3cccc(c23)C(=O)N1OS(=O)(=O)c1c(F)c(F)c(F)c(F)c1F [A′-3, 1,8-naphthalimide pentafluorobenzenesulfonate, reference compound] | 330 L/mol/cm | 1.9 wt % | 1.6 wt % | insufficient | 3.2 wt % | 228 °C
4 | CC1(C)C2CCC1(CS(=O)(=O)ON1C(=O)c3cccc4cccc(c34)C1=O)C(=O)C2 (stereo not drawn) [A′-5, 1,8-naphthalimide-(+)-10-camphorsulfonate, reference compound] | 330 L/mol/cm | <0.5 wt % | <0.5 wt % | insufficient | <0.6 wt % | 230 °C
5 | CC(C)Oc1ccc2c3c(cccc13)C(=O)N(OS(=O)(=O)C(F)(F)F)C2=O [Example A-1, 4-isopropoxy-1,8-naphthalimide trifluoromethanesulfonate] | 16300 L/mol/cm | 6.5 wt % | 8.5 wt % | – | 9 wt % | 234 °C
6 | CCCOc1ccc2c3c(cccc13)C(=O)N(OS(=O)(=O)C(F)(F)F)C2=O [Example A-2, 4-n-propoxy-1,8-naphthalimide trifluoromethanesulfonate] | 14000 L/mol/cm | 4 wt % | 4.5 wt % | – | 7.5 wt % | 238 °C
7 | O=C1c2cccc3c(OCC(F)(F)C(F)F)ccc(c23)C(=O)N1OS(=O)(=O)C(F)(F)F [Example A-3, 4-(2,2,3,3-tetrafluoro-1-propoxy)-1,8-naphthalimide trifluoromethanesulfonate] | 12000 L/mol/cm | 7.5 wt % | 6 wt % | – | 12 wt % | 230 °C
8 | O=C(Cc1ccccc1)c1ccc2c3c(cccc13)C(=O)N(OS(=O)(=O)C(F)(F)F)C2=O [Example A-4, 4-phenylacetyl-1,8-naphthalimide trifluoromethanesulfonate] | 3000 L/mol/cm | 4 wt % | 4.5 wt % | – | 7 wt % | 240 °C
9 | O=C1c2cccc3c(Oc4c(F)c(F)c(F)c(F)c4F)ccc(c23)C(=O)N1OS(=O)(=O)C(F)(F)F [Example A-5, 4-pentafluorophenoxy-1,8-naphthalimide trifluoromethanesulfonate] | 12000 L/mol/cm | 14 wt % | 17 wt % | – | 16 wt % | 245 °C
10 | O=C1c2cccc3c(Oc4cccc(C(F)(F)F)c4)ccc(c23)C(=O)N1OS(=O)(=O)C(F)(F)F [Example A-6, 4-(3-trifluoromethylphenoxy)-1,8-naphthalimide trifluoromethanesulfonate] | 16000 L/mol/cm | 11 wt % | 14 wt % | – | 13 wt % | 239 °C
11 | O=C1c2cccc3c(Sc4ccccc4)ccc(c23)C(=O)N1OS(=O)(=O)C(F)(F)F [Example A-7, 4-phenylthio-1,8-naphthalimide trifluoromethanesulfonate] | 20000 L/mol/cm | 5 wt % | 7 wt % | – | 7 wt % | 240 °C
12 | COc1cc2c3c(cccc3c1)C(=O)N(OS(=O)(=O)C(F)(F)F)C2=O [Example A-8, 3-methoxy-1,8-naphthalimide trifluoromethanesulfonate] | 7500 L/mol/cm | 6 wt % | 8 wt % | – | 7.5 wt % | 243 °C
13 | CCCCC(CC)C(=O)Oc1cc2c3c(cccc3c1)C(=O)N(OS(=O)(=O)C(F)(F)F)C2=O (stereo not drawn) [Example A-9, 3-(2-ethylhexanoyloxy)-1,8-naphthalimide trifluoromethanesulfonate] | 1500 L/mol/cm | >30 wt % | >30 wt % | – | >30 wt % | 231 °C
14 | CCCC(=O)Oc1cc2c3c(cccc3c1)C(=O)N(OS(=O)(=O)C(F)(F)F)C2=O [Example A-10, 3-butyroyloxy-1,8-naphthalimide trifluoromethanesulfonate] | 1600 L/mol/cm | >30 wt % | >30 wt % | – | >30 wt % | 234 °C
15 | O=C(Oc1cc2c3c(cccc3c1)C(=O)N(OS(=O)(=O)C(F)(F)F)C2=O)c1ccccc1 [Example A-11, 3-benzoyloxy-1,8-naphthalimide trifluoromethanesulfonate] | 1400 L/mol/cm | 20 wt % | 25 wt % | – | 23 wt % | 241 °C
16 | O=C(Oc1cc2c3c(cccc3c1)C(=O)N(OS(=O)(=O)C(F)(F)F)C2=O)c1c(F)c(F)c(F)c(F)c1F [Example A-12, 3-pentafluorobenzoyloxy-1,8-naphthalimide trifluoromethanesulfonate] | 1300 L/mol/cm | >30 wt % | >30 wt % | – | >30 wt % | 242 °C
17 | CC(C)(C)c1cc2c3c(cc(C(C)(C)C)cc3c1)C(=O)N(OS(=O)(=O)C(F)(F)F)C2=O [Example A-13, 3,6-di-tert-butyl-1,8-naphthalimide trifluoromethanesulfonate] | 6500 L/mol/cm | 8 wt % | 8 wt % | – | 7.5 wt % | 245 °C
18 | CC(C)(C)Cc1cc2c3c(cc(CC(C)(C)C)cc3c1)C(=O)N(OS(=O)(=O)C(F)(F)F)C2=O [Example A-14, 3,6-dineopentyl-1,8-naphthalimide trifluoromethanesulfonate] | 6200 L/mol/cm | 14 wt % | 18 wt % | – | 10 wt % | 248 °C

From patent US20160368879A1, “PHOTOACID GENERATOR, AND RESIN COMPOSITION FOR PHOTOLITHOGRAPHY” (SAN-APRO LTD., priority 2013, published 2016)
